In patent US9226500B2, “Pesticidal compositions and processes related thereto” (Dow AgroSciences LLC, priority 2012, dated 2016):

tested on: Beet Armyworm (Spodoptera exigua); assay: Bioassay on Beet Armyworm (BAW), 128-well diet tray assay; assay type: in vivo; conditions: Table 3, Assays Results Part 1
Method: Certain molecules disclosed in this document were tested against BAW, CEW and CL using procedures described in the following examples. In the reporting of the results, the “BAW & CEW & CL Rating Table” was used (See Table Section).
Bioassays on BAW (Spodoptera exigua)
Bioassays on BAW were conducted using a 128-well diet tray assay. One to five second instar BAW larvae were placed in each well (3 mL) of the diet tray that had been previously filled with 1 mL of artificial diet to which 50 μg/cm^2 of the test compound (dissolved in 50 μL of 90:10 acetone-water mixture) had been applied (to each of eight wells) and then allowed to dry. Trays were covered with a clear self-adhesive cover, and held at 25° C., 14:10 light-dark for five to seven days. Percent mortality was recorded for the larvae in each well; activity in the eight wells was then averaged. The results are indicated in the tables entitled “Table 3: Assay Results Part 1” and “Table 4: Assay Results Part 2” (See Table Section).

Row | SMILES | BAW Rating
1 | Cc1cc(/C=C/C(c2cc(Cl)cc(Cl)c2)C(F)(F)F)ccc1C(=O)NCc1ccc(Cl)nc1 (stereo not drawn) [AC7] | A (50-100)
2 | Cc1cc(/C=C/C(c2cc(Cl)cc(Cl)c2)C(F)(F)F)ccc1C(=O)NCc1ccccc1F (stereo not drawn) [AC9] | A (50-100)
3 | Cc1cc(/C=C/C(c2cc(Cl)cc(Cl)c2)C(F)(F)F)ccc1C(=O)NC1CSC1 (stereo not drawn) [AC10] | A (50-100)
4 | Cc1cc(/C=C/C(c2cc(Cl)cc(Cl)c2)C(F)(F)F)ccc1C(=O)NCc1ccccc1 (stereo not drawn) [AC11] | A (50-100)
5 | Cc1cc(/C=C/C(c2cc(Cl)cc(Cl)c2)C(F)(F)F)ccc1C(=O)NCc1ccccn1 (stereo not drawn) [AC12] | A (50-100)
6 | Cc1cc(/C=C/C(c2cc(Cl)cc(Cl)c2)C(F)(F)F)ccc1C(=O)NC1CS(=O)(=O)C1 (stereo not drawn) [AC13] | A (50-100)
7 | Cc1cc(/C=C/C(c2cc(Cl)cc(Cl)c2)C(F)(F)F)ccc1C(=O)NCc1cnc(Cl)s1 (stereo not drawn) [AC15] | A (50-100)
8 | Cc1cc(/C=C/C(c2cc(Cl)cc(Cl)c2)C(F)(F)F)ccc1C(=O)NC(C)(C)c1ccccn1 (stereo not drawn) [AC16] | A (50-100)
9 | Cc1cc(/C=C/C(c2cc(Cl)cc(Cl)c2)C(F)(F)F)ccc1C(=O)NNc1ccccc1F (stereo not drawn) [AC17] | A (50-100)
10 | Cc1cc(/C=C/C(c2cc(Cl)cc(Cl)c2)C(F)(F)F)ccc1C(=O)NCc1ncccn1 (stereo not drawn) [AC18] | A (50-100)
11 | Cc1cc(/C=C/C(c2cc(Cl)cc(Cl)c2)C(F)(F)F)ccc1C(=O)NCc1ccoc1 (stereo not drawn) [AC20] | A (50-100)
12 | Cc1cc(/C=C/C(c2cc(Cl)c(Cl)c(Cl)c2)C(F)(F)F)ccc1C(=O)NCc1ccc(Cl)nc1 (stereo not drawn) [AC22] | A (50-100)
13 | Cc1cc(/C=C/C(c2cc(Cl)c(Cl)c(Cl)c2)C(F)(F)F)ccc1C(=O)NC1CSC1 (stereo not drawn) [AC23] | A (50-100)
14 | Cc1cc(/C=C/C(c2cc(Cl)c(Cl)c(Cl)c2)C(F)(F)F)ccc1C(=O)NCc1cnc(Cl)s1 (stereo not drawn) [AC26] | A (50-100)
15 | Cc1cc(/C=C/C(c2cc(Cl)c(Cl)c(Cl)c2)C(F)(F)F)ccc1C(=O)NC(C)(C)c1ccccn1 (stereo not drawn) [AC27] | A (50-100)
16 | O=C(NCc1ccc(Cl)nc1)c1ccc(/C=C/C(c2cc(Cl)c(Cl)c(Cl)c2)C(F)(F)F)cc1Cl (stereo not drawn) [AC28] | A (50-100)
17 | O=C(NC1CSC1)c1ccc(/C=C/C(c2cc(Cl)c(Cl)c(Cl)c2)C(F)(F)F)cc1Cl (stereo not drawn) [AC29] | A (50-100)
18 | O=C(NC1CS(=O)(=O)C1)c1ccc(/C=C/C(c2cc(Cl)c(Cl)c(Cl)c2)C(F)(F)F)cc1Cl (stereo not drawn) [AC30] | A (50-100)
19 | O=C(NCc1ccc(Cl)nc1)c1ccc(/C=C/C(c2cc(Cl)c(Cl)c(Cl)c2)C(F)(F)F)cc1Br (stereo not drawn) [AC31] | A (50-100)
20 | O=C(NC1CSC1)c1ccc(/C=C/C(c2cc(Cl)c(Cl)c(Cl)c2)C(F)(F)F)cc1Br (stereo not drawn) [AC32] | A (50-100)
21 | O=C(NC1CS(=O)(=O)C1)c1ccc(/C=C/C(c2cc(Cl)c(Cl)c(Cl)c2)C(F)(F)F)cc1Br (stereo not drawn) [AC33] | A (50-100)

Row | SMILES | BAW Rating
22 | O=C(NC1CSC1)c1ccc(/C=C/C(c2cc(Cl)c(Cl)c(Cl)c2)C(F)(F)F)cc1C(F)(F)F (stereo not drawn) [AC34] | A (50-100)
23 | O=C(NC1CS(=O)(=O)C1)c1ccc(/C=C/C(c2cc(Cl)c(Cl)c(Cl)c2)C(F)(F)F)cc1C(F)(F)F (stereo not drawn) [AC35] | A (50-100)
24 | O=C(NCc1ccc(Cl)nc1)c1ccc(/C=C/C(c2cc(Cl)c(Cl)c(Cl)c2)C(F)(F)F)cc1C(F)(F)F (stereo not drawn) [AC36] | A (50-100)
25 | Cc1cc(/C=C/C(c2ccc(Cl)c(Cl)c2)C(F)(F)F)ccc1C(=O)NCc1ccc(Cl)nc1 (stereo not drawn) [AC37] | A (50-100)
26 | Cc1cc(/C=C/C(c2cc(Cl)c(F)c(Cl)c2)C(F)(F)F)ccc1C(=O)NCc1ccc(Cl)nc1 (stereo not drawn) [AC38] | A (50-100)
27 | Cc1cc(/C=C/C(c2cc(Cl)cc(Cl)c2)C(F)(F)F)ccc1C(=O)NCc1cncnc1 (stereo not drawn) [AC39, 4-((E)-3-(3,5-Dichlorophenyl)-4,4,4-trifluorobut-1-enyl)-2-methyl-N-((pyrimidin-5-yl)methyl)benzamide] | A (50-100)
28 | Cc1cc(/C=C/C(c2cc(Cl)cc(Cl)c2)C(F)(F)F)ccc1C(=O)NCC(=O)NC1CC1 (stereo not drawn) [AC40] | A (50-100)
29 | Cc1cc(/C=C/C(c2cc(Cl)cc(Cl)c2)C(F)(F)F)ccc1C(=O)NCC(=O)NC1CSC1 (stereo not drawn) [AC41] | A (50-100)
30 | Cc1cc(/C=C/C(c2cc(Cl)cc(Cl)c2)C(F)(F)F)ccc1C(=O)NCc1nc2ccccc2s1 (stereo not drawn) [AC42] | A (50-100)
31 | Cc1cc(/C=C/C(c2cc(Cl)cc(Cl)c2)C(F)(F)F)ccc1C(=O)NCc1cnccn1 (stereo not drawn) [AC43] | A (50-100)
32 | Cc1cc(/C=C/C(c2cc(Cl)cc(Cl)c2)C(F)(F)F)ccc1C(=O)NN(C)c1ccccc1F (stereo not drawn) [AC45] | A (50-100)
33 | Cc1cc(/C=C/C(c2cc(Cl)cc(Cl)c2)C(F)(F)F)ccc1C(=O)NCc1ccc(Cl)cc1 (stereo not drawn) [AC48] | A (50-100)
34 | O=C(NCc1ccc(Cl)nc1)c1ccc(/C=C/C(c2cc(Cl)cc(Cl)c2)C(F)(F)F)cc1F (stereo not drawn) [AC49] | A (50-100)
35 | Cc1cc(/C=C/C(c2cc(Cl)cc(Cl)c2)C(F)(F)F)ccc1C(=O)NCc1nccn1C (stereo not drawn) [AC50] | A (50-100)
36 | Cc1cc(/C=C/C(c2cc(Cl)cc(Cl)c2)C(F)(F)F)ccc1C(=O)NCC(=O)N(C)CC(F)(F)F (stereo not drawn) [AC51] | A (50-100)
37 | Cc1cc(/C=C/C(c2cc(Cl)c(F)c(Cl)c2)C(F)(F)F)ccc1C(=O)NC1CCOCC1 (stereo not drawn) [AC52] | A (50-100)
38 | Cc1cc(/C=C/C(c2cc(Cl)c(F)c(Cl)c2)C(F)(F)F)ccc1C(=O)NCc1ccc(Cl)cn1 (stereo not drawn) [AC53] | A (50-100)
39 | Cc1cc(/C=C/C(c2cc(Cl)c(F)c(Cl)c2)C(F)(F)F)ccc1C(=O)NCc1ccnc(Cl)c1 (stereo not drawn) [AC54] | A (50-100)
40 | CC(C)(C)OC(=O)CNC(=O)c1ccc(/C=C/C(c2cc(Cl)c(Cl)c(Cl)c2)C(F)(F)F)cc1Br (stereo not drawn) [AC58] | A (50-100)
41 | Cc1cc(/C=C/C(c2cc(Cl)cc(Cl)c2)C(F)(F)F)ccc1C(=O)Nc1ccc(Cl)nc1 (stereo not drawn) [AC59] | A (50-100)
42 | O=C(NC1CSC1)c1ccc(/C=C/C(c2cc(Cl)cc(Cl)c2)C(F)(F)F)cc1F (stereo not drawn) [AC61] | A (50-100)

Row | SMILES | BAW Rating
43 | O=C(CNC(=O)c1ccc(/C=C/C(c2cc(Cl)cc(Cl)c2)C(F)(F)F)cc1F)NCC(F)(F)F (stereo not drawn) [AC62] | A (50-100)
44 | O=C(NCc1ccc(Cl)nc1)c1ccc(/C=C/C(c2cc(Cl)c(F)c(Cl)c2)C(F)(F)F)cc1Br (stereo not drawn) [AC63] | A (50-100)
45 | O=C(CNC(=O)c1ccc(/C=C/C(c2cc(Cl)c(Cl)c(Cl)c2)C(F)(F)F)cc1Cl)NCC(F)(F)F (stereo not drawn) [AC64, (E)-2-Chloro-N-(2-oxo-2-((2,2,2-trifluoroethyl)amino)ethyl)-4-(4,4,4-trifluoro-3-(3,4,5-trichlorophenyl)but-1-en-1-yl)benzamide] | A (50-100)
46 | O=C(NCc1ccc(Cl)nc1)c1ccc(/C=C/C(c2cc(Cl)c(F)c(Cl)c2)C(F)(F)F)cc1F (stereo not drawn) [AC65] | A (50-100)
47 | O=C(CNC(=O)c1ccc(/C=C/C(c2cc(Cl)c(Cl)c(Cl)c2)C(F)(F)F)cc1Br)NCC(F)(F)F (stereo not drawn) [AC66] | A (50-100)
48 | O=C(NC1CSC1)c1ccc(/C=C/C(c2cc(Cl)c(F)c(Cl)c2)C(F)(F)F)cc1F (stereo not drawn) [AC67] | A (50-100)
49 | O=C(CNC(=O)c1ccc(/C=C/C(c2cc(Cl)c(F)c(Cl)c2)C(F)(F)F)cc1F)NCC(F)(F)F (stereo not drawn) [AC68] | A (50-100)
50 | Cc1cc(/C=C/C(c2cc(Cl)c(F)c(Cl)c2)C(F)(F)F)ccc1C(=O)NCC(=O)NCC(F)(F)F (stereo not drawn) [AC69] | A (50-100)
51 | COc1cc(/C=C/C(c2cc(Cl)c(F)c(Cl)c2)C(F)(F)F)ccc1C(=O)NC1CSC1 (stereo not drawn) [AC71] | A (50-100)
52 | CCc1cc(/C=C/C(c2cc(Cl)c(F)c(Cl)c2)C(F)(F)F)ccc1C(=O)NCc1ccc(Cl)nc1 (stereo not drawn) [AC72] | A (50-100)
53 | O=C(NCc1ccc(C(F)(F)F)nc1)c1ccc(/C=C/C(c2cc(Cl)c(Cl)c(Cl)c2)C(F)(F)F)cc1Br (stereo not drawn) [AC75] | A (50-100)
54 | Cc1cc(/C=C/C(c2cc(Cl)c(F)c(Cl)c2)C(F)(F)F)ccc1C(=O)NCc1cc(Cl)ccn1 (stereo not drawn) [AC77] | A (50-100)
55 | Cc1cc(/C=C/C(c2cc(Cl)c(Cl)c(Cl)c2)C(F)(F)F)ccc1C(=O)NCC(=O)NCC(F)(F)F (stereo not drawn) [AC78] | A (50-100)
56 | O=C(CNC(=O)c1ccc(/C=C/C(c2cc(Cl)c(F)c(Cl)c2)C(F)(F)F)cc1Br)NCC(F)(F)F (stereo not drawn) [AC79, (E)-2-Bromo-4-(3-(3,5-dichloro-4-fluorophenyl)-4,4,4-trifluorobut-1-en-1-yl)-N-(2-oxo-2-((2,2,2-trifluoroethyl)amino)ethyl)benzamide] | A (50-100)
57 | CCc1cc(/C=C/C(c2cc(Cl)c(F)c(Cl)c2)C(F)(F)F)ccc1C(=O)NCC(=O)NCC(F)(F)F (stereo not drawn) [AC80] | A (50-100)
58 | Cc1cc(/C=C/C(c2cc(Cl)cc(Cl)c2)C(F)(F)F)ccc1C(=O)NCC(=O)NC1CS(=O)(=O)C1 (stereo not drawn) [AC81] | A (50-100)
59 | O=C(NC1CS(=O)(=O)C1)c1ccc(/C=C/C(c2cc(Cl)cc(Cl)c2)C(F)(F)F)cc1F (stereo not drawn) [AC83, (E)-4-(3-(3,5-Dichlorophenyl)-4,4,4-trifluorobut-1-en-1-yl)-N-(1,1-dioxidothietan-3-yl)-2-fluorobenzamide] | A (50-100)
60 | O=C(NC1CS(=O)(=O)C1)c1ccc(/C=C/C(c2cc(Cl)c(F)c(Cl)c2)C(F)(F)F)cc1F (stereo not drawn) [AC84] | A (50-100)
61 | COc1cc(/C=C/C(c2cc(Cl)c(F)c(Cl)c2)C(F)(F)F)ccc1C(=O)NC1CS(=O)(=O)C1 (stereo not drawn) [AC85] | A (50-100)
62 | CCc1cc(/C=C/C(c2cc(Cl)c(F)c(Cl)c2)C(F)(F)F)ccc1C(=O)NC1CS(=O)(=O)C1 (stereo not drawn) [AC86] | A (50-100)
63 | O=C(NC1C[S+]([O-])C1)c1ccc(/C=C/C(c2cc(Cl)c(F)c(Cl)c2)C(F)(F)F)cc1F (stereo not drawn) [AC87] | A (50-100)
